Test results published in ChEMBL document CHEMBL1125951, “Synthesis and dopaminergic activity of the enantiomers of 6-methyl-4,5a,6,7,8-hexahydrothiazolo[4,5-f]quinolin-2-amine (PD 128483)” (Bioorg Med Chem Lett, 1991).

Experiments:
[1] = target: Dopamine receptors; D1 & D2 (Rattus norvegicus, UniProt P18901+P61169); assay: In vitro binding affinity to Dopamine receptor D1/Dopamine receptor D2 in rat striatal membranes using [3H]N-propylnorapomorphine; format: cell membranes, Striatum, Membrane
D(1A) dopamine receptor = D(1A) dopamine receptor (Rattus norvegicus, UniProt P18901); assay: In vitro binding affinity to Dopamine receptor D1 in rat striatal membranes using D1 antagonist [3H]SCH-23390; format: cell membranes, Striatum, Membrane
Rattus norvegicus [2] = assay: Compound was evaluated for reversal of the increase in rat striatum DOPA accumulation produced by the pretreatment with GBL (750 mg/Kg, ip) and NSD 1015 (100 mg/Kg, ip); format: functional
Rattus norvegicus [3] = assay: Compound was evaluated for inhibition of the spontaneous firing of substantia nigra DA neurons in anesthetized rats at 2.5 mg/Kg (ip); format: functional
D(2) dopamine receptor = D(2) dopamine receptor (Rattus norvegicus, UniProt P61169); assay: In vitro binding affinity to Dopamine receptor D2 in rat striatal membranes using D2 antagonist [3H]spiperone; format: cell membranes, Striatum, Membrane
Rattus norvegicus [4] = assay: Compound was evaluated for reversal of the increase in rat striatum DOPA accumulation produced by the pretreatment with GBL (750 mg/kg, ip) and NSD 1015 (100 mg/Kg, ip); format: functional
Rattus norvegicus [5] = assay: Compound (2.0 mg/kg ip.) was evaluated for reversal of the increase in rat striatum DOPA accumulation produced by the pretreatment with GBL (750 mg/Kg, ip) and NSD 1015 (2 mg/Kg, ip); format: functional
Rattus norvegicus [6] = assay: Compound was evaluated for inhibition of the spontaneous firing of substantia nigra DA neurons in anesthetized rats at 0.25 mg/Kg (ip); format: functional

D(1A) dopamine receptor, sequence (P18901 whole entry): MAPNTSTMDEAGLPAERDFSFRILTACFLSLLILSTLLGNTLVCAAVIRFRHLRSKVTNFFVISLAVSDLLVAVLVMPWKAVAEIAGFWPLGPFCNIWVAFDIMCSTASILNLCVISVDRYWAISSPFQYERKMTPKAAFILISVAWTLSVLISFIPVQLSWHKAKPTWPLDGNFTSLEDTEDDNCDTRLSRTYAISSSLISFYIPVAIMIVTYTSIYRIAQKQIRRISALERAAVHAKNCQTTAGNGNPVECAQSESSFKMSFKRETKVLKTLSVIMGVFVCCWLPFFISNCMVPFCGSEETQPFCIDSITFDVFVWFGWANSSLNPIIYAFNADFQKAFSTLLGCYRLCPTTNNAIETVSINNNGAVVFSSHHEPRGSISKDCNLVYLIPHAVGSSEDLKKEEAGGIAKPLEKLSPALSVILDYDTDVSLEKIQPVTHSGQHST
D(2) dopamine receptor, sequence (P61169 whole entry): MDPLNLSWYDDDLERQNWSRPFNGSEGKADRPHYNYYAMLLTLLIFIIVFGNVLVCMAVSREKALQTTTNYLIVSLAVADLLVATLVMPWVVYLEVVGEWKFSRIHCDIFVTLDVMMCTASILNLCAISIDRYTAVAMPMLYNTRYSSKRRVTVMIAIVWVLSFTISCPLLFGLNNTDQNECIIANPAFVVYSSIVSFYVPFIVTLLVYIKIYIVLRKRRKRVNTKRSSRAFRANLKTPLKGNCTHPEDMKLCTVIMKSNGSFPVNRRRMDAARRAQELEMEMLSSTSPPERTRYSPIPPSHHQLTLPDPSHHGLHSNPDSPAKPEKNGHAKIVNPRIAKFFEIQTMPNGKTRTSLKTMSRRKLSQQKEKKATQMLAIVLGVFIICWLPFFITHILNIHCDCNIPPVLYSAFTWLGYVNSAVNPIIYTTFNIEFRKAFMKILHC

CN1CCC=C2c3nc(N)sc3CC[C@H]21
IC50 [1]: 127 nM
IC50 (D(1A) dopamine receptor): > 20000 nM
ED50 (Rattus norvegicus [2]): 0.5 mg/kg
inhibition in vivo at 2.5 mg/kg (Rattus norvegicus [3]): 99%
IC50 (D(2) dopamine receptor): 376 nM

CCCN1CCC=C2c3nc(N)sc3CC[C@@H]21
IC50 (D(1A) dopamine receptor): > 15000 nM
ED50 (Rattus norvegicus [2]): > 10 mg/kg
inhibition in vivo at 2.5 mg/kg (Rattus norvegicus [3]): 22%

CCCN1CCC=C2c3nc(N)sc3CC[C@H]21
IC50 (D(1A) dopamine receptor): > 15000 nM
ED50 (Rattus norvegicus [2]): 4.8 mg/kg
inhibition in vivo at 2.5 mg/kg (Rattus norvegicus [3]): 91%

CN1CCC=C2c3nc(N)sc3CC[C@@H]21
IC50 [1]: 464 nM
IC50 (D(1A) dopamine receptor): > 20000 nM
ED50 (Rattus norvegicus [4]): > 10 mg/kg
inhibition in vivo at 2.5 mg/kg (Rattus norvegicus [3]): 67%
IC50 (D(2) dopamine receptor): 768 nM

CN1CCc2cccc3c2[C@H]1Cc1ccc(O)c(O)c1-3 [APOMORPHINE]
Inhibition (Rattus norvegicus [5]): 100%
inhibition in vivo at 0.25 mg/kg (Rattus norvegicus [6]): 100%
